Experimental data taken from US20240336574A1 (LATIGO BIOTHERAPEUTICS, INC., priority 2021, published 2024).
Read-outs that look alike come from different tables or passages of the source.

Target: T1, recombinant human NaV1.8 stably transfected HEK cells (Homo sapiens, UniProt Q9Y5Y9)
T1 construct: expressed in transfected cells; host or cells: HEK cells, stably transfected
Test: Compound profiling on NaV1.8, human NaV1.8 cell line, SyncroPatch384PE automated patch clamp assay (Example 115, third set of compounds, Table 27)
Format: cell-based
Settings: human NaV1.8 HEK cells, Table 27 (third set of compounds)
Description: Compound Profiling on NaV1.8 Human NaV1.8 Cell Line SyncroPatch384PE Assay
Compounds were tested on recombinant human NaV1.8 stably transfected HEK cells using the SyncroPatch384PE system, an automated patch clamp device. Cells were cultured at 37° C./5% CO2 in DMEM medium supplemented with GlutaMAX I, NEAA 1%, FBS 10% and seeded in T175 flasks. Cells were cultured at 30° C. one day prior to recording sodium currents. On the day of the recordings, cells were detached with 0.05% Trypsin-EDTA, resuspended in serum free DMEM medium and placed into the SyncroPatch384PE 6° C. pre-cooled cell hotel and shaken at 200 rpm. Intracellular solution (IC) contained, in mM: 10, CsCl; 110, CsF; 20, EGTA; 10, HEPES. Extracellular solution (EC) contained, in mM: 140, NaCl; 4, KCl; 5, Glucose; 10, HEPES; 2, CaCl2; 1, MgCl2. Washing solution contained, in mM: 40, NMDG; 100, NaCl; 4, KCl; 10, Glucose; 10, HEPES; 5, CaCl2; 1, MgCl2.
Compounds were tested in quadruplicates in 0.1% DMSO and 0.030% Pluronic Acid. Compounds were diluted 1:3.33 in EC solution to create a 10-point concentration response curve, spanning a final concentration range from 10-0.0002 μM in the assay plate. Compounds with low nM potency were retested using a lower concentration range (1-0.00002 μM). Each plate contained tetracaine and another tool compound as positive controls. Up to 7 compounds were tested on one plate. 150 μM tetracaine and 0.1% DMSO were used as high and low controls, respectively.
Whole cell patch clamp recordings were conducted according to Nanion's standard procedure for SyncroPatch384PE®. Cells were held at a holding potential of −120 mV. A depolarization step to 10 mV for 30 ms was applied (P1 measurement), followed by a hyperpolarization step to −100 mV for 100 ms. An inactivation step at −40 mV for 10 sec was applied before stepping to −100 mV for 20 ms, followed by a step to 10 mV for 30 ms (P2 measurement) and then back to −100 mV for 30 ms. Sweep interval was 15 sec with a sampling rate of 10 kHz. Following establishment of the whole-cell configuration in EC, two washing steps with reference buffer were performed to stabilize the baseline. Compounds were then applied by the SynchroPatch into each well and the current was recorded for five minutes in EC, followed by application of tetracaine to achieve full block at the end of the experiment. The potency of the compounds was assessed on two read-outs, resting state block (P1 measurement) or inactivated state block (P2 measurement) to obtain IC50 values. Values were normalized to high (tetracaine) and low (DMSO) controls.

[1] = inactivated state block (P2 measurement), read-out: P2 IC50
[2] = resting state block (P1 measurement), read-out: P1 IC50

T1 sequence (Q9Y5Y9 whole entry): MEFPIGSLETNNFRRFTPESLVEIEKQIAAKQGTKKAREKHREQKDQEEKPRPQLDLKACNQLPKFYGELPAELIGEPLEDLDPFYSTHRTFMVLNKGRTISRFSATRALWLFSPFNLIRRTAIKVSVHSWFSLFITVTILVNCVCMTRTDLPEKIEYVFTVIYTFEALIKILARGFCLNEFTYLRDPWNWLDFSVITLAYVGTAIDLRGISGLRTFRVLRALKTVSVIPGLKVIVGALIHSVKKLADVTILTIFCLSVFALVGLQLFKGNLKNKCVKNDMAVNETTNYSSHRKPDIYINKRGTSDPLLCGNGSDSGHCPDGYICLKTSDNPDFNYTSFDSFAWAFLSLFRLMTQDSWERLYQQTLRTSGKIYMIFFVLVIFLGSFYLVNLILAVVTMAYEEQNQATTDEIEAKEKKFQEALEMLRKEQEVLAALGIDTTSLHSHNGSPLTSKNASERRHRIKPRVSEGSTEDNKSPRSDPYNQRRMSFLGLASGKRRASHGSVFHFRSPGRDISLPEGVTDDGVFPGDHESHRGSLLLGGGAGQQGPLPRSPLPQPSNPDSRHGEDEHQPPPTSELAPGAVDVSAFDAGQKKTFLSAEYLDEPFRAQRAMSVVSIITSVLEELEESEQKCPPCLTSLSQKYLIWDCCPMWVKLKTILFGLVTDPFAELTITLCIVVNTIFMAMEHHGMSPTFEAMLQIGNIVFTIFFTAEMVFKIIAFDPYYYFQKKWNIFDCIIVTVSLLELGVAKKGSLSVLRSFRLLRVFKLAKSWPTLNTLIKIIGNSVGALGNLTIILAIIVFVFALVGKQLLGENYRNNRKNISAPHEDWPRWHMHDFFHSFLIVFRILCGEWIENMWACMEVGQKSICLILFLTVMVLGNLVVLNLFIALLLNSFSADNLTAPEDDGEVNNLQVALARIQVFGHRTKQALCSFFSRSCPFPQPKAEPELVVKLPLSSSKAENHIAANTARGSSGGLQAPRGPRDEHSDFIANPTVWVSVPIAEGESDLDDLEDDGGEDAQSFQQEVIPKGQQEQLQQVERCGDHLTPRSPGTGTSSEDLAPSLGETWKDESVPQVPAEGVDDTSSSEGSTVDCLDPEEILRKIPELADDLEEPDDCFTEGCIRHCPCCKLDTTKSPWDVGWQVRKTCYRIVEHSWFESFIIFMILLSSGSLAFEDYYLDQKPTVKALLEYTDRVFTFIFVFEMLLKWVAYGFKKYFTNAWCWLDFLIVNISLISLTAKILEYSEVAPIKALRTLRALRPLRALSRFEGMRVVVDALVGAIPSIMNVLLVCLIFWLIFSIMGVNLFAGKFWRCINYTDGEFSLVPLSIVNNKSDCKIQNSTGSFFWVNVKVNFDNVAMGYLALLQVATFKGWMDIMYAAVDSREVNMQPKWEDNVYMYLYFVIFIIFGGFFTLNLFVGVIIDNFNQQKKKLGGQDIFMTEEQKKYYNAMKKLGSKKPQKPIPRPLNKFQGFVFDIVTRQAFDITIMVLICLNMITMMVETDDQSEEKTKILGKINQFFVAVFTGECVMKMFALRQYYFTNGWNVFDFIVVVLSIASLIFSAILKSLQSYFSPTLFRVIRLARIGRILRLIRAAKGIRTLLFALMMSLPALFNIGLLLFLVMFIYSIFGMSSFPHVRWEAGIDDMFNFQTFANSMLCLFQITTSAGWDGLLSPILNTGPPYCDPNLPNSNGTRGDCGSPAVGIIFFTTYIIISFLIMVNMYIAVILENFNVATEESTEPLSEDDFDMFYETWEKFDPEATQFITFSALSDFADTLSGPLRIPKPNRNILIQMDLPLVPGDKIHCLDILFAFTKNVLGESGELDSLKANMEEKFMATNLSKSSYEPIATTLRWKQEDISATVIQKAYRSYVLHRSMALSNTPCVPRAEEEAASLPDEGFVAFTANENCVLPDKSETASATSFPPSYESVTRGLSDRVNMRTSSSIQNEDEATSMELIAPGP

| SMILES | IC50 [1] | IC50 [2] |
| --- | --- | --- |
| Cc1cc(F)ccc1Oc1nnc(C(F)(F)F)cc1C(=O)Nc1cccc(-n2cncn2)c1 [Compound 9] | 1 to 5 µM | > 5 µM |
| Cc1cc(F)ccc1Oc1nnc(C(F)(F)F)cc1C(=O)Nc1cccc(CS(C)(=O)=O)c1 [Compound 10] | > 5 µM | > 5 µM |
| Cc1cc(F)ccc1Oc1nnc(C(F)(F)F)cc1C(=O)Nc1ccn2cnnc2c1 [Compound 11] | 1 to 5 µM | 1 to 5 µM |
| Cc1cc(F)ccc1Oc1nnc(C(F)(F)F)cc1C(=O)Nc1cccc(-n2cnnc2)c1 [Compound 12] | 1 to 5 µM | 1 to 5 µM |
| COc1cc(F)ccc1Oc1nnc(C(F)(F)F)cc1C(=O)Nc1cccc(S(C)(=O)=O)n1 [Compound 15] | 1 to 5 µM | > 5 µM |
| COc1cc(F)ccc1Oc1nnc(C(F)(F)F)cc1C(=O)Nc1cncc(S(C)(=O)=O)c1 [Compound 16] | 1 to 5 µM | 1 to 5 µM |
| COc1cc(F)ccc1Oc1nnc(C(F)(F)F)cc1C(=O)Nc1cccc(S(=O)(=O)C(C)C)c1 [Compound 17] | 0.201 to 0.5 µM | 0.501 to 1 µM |
| COc1cc(F)ccc1Oc1nnc(C(F)(F)F)cc1C(=O)Nc1cccc(NS(C)(=O)=O)c1 [Compound 18] | 0.501 to 1 µM | 1 to 5 µM |
| COc1cc(F)ccc1Oc1nnc(C(F)(F)F)cc1C(=O)Nc1cccc(CS(C)(=O)=O)c1 [Compound 19] | 1 to 5 µM | 1 to 5 µM |
| COc1cc(F)ccc1Oc1nnc(C(F)(F)F)cc1C(=O)Nc1ccn2cnnc2c1 [Compound 21] | 0.501 to 1 µM | 0.501 to 1 µM |
| COc1cc(F)ccc1Oc1nnc(C(F)(F)F)cc1C(=O)Nc1cccc(-n2cnnc2)c1 [Compound 22] | 1 to 5 µM | 1 to 5 µM |
| COc1cc(F)ccc1Oc1nnc(C(F)(F)F)cc1C(=O)Nc1cc(S(C)(=O)=O)ccc1F [Compound 23] | 0.201 to 0.5 µM | 0.201 to 0.5 µM |
| COc1cc(F)ccc1Oc1nnc(C(F)(F)F)cc1C(=O)Nc1cccc(S(=O)(=O)C2CC2)c1 [Compound 25] | ≤ 0.2 µM | ≤ 0.2 µM |
| COc1cc(F)ccc1Oc1nnc(C(F)(F)F)cc1C(=O)Nc1cccc(C(N)=O)c1 [Compound 26] | ≤ 0.2 µM | ≤ 0.2 µM |
| COc1cc(F)ccc1Oc1nnc(C(F)(F)F)cc1C(=O)Nc1ccc(C(N)=O)cc1 [Compound 27] | ≤ 0.2 µM | ≤ 0.2 µM |
| COc1cc(NC(=O)c2cc(C(F)(F)F)nnc2Oc2ccc(F)cc2C)c(C)cn1 [Compound 29] | > 5 µM | > 5 µM |
| CSc1ccc(NC(=O)c2cc(C(F)(F)F)nnc2Oc2ccc(F)cc2C)cc1 [Compound 32] | > 5 µM | > 5 µM |
| COc1cc(NC(=O)c2cc(C(F)(F)F)nnc2Oc2ccc(F)cc2OC)ccn1 [Compound 33] | ≤ 0.2 µM | ≤ 0.2 µM |
| CS(=O)(=O)c1cccc(NC(=O)c2cc(C(F)(F)F)nnc2Oc2ccc(OC(F)F)cc2)c1 [Compound 34] | ≤ 0.2 µM | ≤ 0.2 µM |
| Cc1cc(OC(F)(F)F)ccc1Oc1nnc(C(F)(F)F)cc1C(=O)Nc1cccc(S(C)(=O)=O)c1 [Compound 35] | ≤ 0.2 µM | ≤ 0.2 µM |
| COc1cc(F)ccc1Oc1nnc(C(F)(F)F)cc1C(=O)Nc1cccc(-n2ncnc2C)c1 [Compound 36] | 0.501 to 1 µM | 0.201 to 0.5 µM |
| Cc1cc(OC(F)(F)F)ccc1Oc1nnc(C(F)(F)F)cc1C(=O)Nc1ccc(C(N)=O)cc1 [Compound 37] | ≤ 0.2 µM | ≤ 0.2 µM |
| COc1cc(F)ccc1Oc1nnc(C(F)(F)F)cc1C(=O)Nc1cccc(-c2nncn2C)c1 [Compound 38] | 1 to 5 µM | 1 to 5 µM |
| COc1cc(F)ccc1Oc1nnc(C(F)(F)F)cc1C(=O)Nc1cccc(S(N)(=O)=O)c1 [Compound 39] | ≤ 0.2 µM | ≤ 0.2 µM |
| Cc1cc(F)ccc1Oc1nnc(C(F)(F)F)cc1C(=O)Nc1ccc(S(C)(=O)=O)cc1 [Compound 40] | > 5 µM | 1 to 5 µM |
| Cc1cc(F)ccc1Oc1nnc(C(F)(F)F)cc1C(=O)Nc1ccc(=O)[nH]c1 [Compound 41] | > 5 µM | 1 to 5 µM |

| SMILES | IC50 [1] | IC50 [2] |
| --- | --- | --- |
| Cc1cc(C(F)(F)F)ccc1Oc1nnc(C(F)(F)F)cc1C(=O)Nc1cccc(S(C)(=O)=O)c1 [Compound 42] | ≤ 0.2 µM | ≤ 0.2 µM |
| COc1cc(F)ccc1Oc1nnc(C(F)(F)F)cc1C(=O)Nc1ccc2c(c1)S(=O)(=O)NC2=O [Compound 43] | 1 to 5 µM | 0.501 to 1 µM |
| CS(=O)(=O)c1cccc(NC(=O)c2cc(C(F)(F)F)nnc2Oc2cc(OC(F)(F)F)ccc2F)c1 [Compound 44] | 0.501 to 1 µM | 0.201 to 0.5 µM |
| COc1cc(F)ccc1Oc1nnc(C(F)(F)F)cc1C(=O)Nc1cccc(S2(=O)=NCCC2)c1 (stereo not drawn) [Compound 45] | 0.201 to 0.5 µM | 0.201 to 0.5 µM |
| COC(=O)c1cncc(NC(=O)c2cc(C(F)(F)F)nnc2Oc2ccc(F)cc2OC)n1 [Compound 46] | > 5 µM | > 5 µM |
| Cc1cc(OC(F)(F)F)ccc1Oc1nnc(C(F)(F)F)cc1C(=O)Nc1cccc(S(N)(=O)=O)c1 [Compound 47] | ≤ 0.2 µM | ≤ 0.2 µM |
| Cc1cc(F)ccc1Oc1nnc(C(F)(F)F)cc1C(=O)Nc1ccc(S(N)(=O)=O)cc1 [Compound 48] | 1 to 5 µM | 0.501 to 1 µM |
| COc1cc(F)ccc1Oc1nnc(C(F)(F)F)cc1C(=O)Nc1cncc(S(N)(=O)=O)c1 [Compound 49] | ≤ 0.2 µM | ≤ 0.2 µM |
| COc1cc(F)ccc1Oc1nnc(C(F)(F)F)cc1C(=O)Nc1ccnc(S(N)(=O)=O)c1 [Compound 50] | ≤ 0.2 µM | ≤ 0.2 µM |
| Cc1cc(F)ccc1Oc1nnc(C(F)(F)F)cc1C(=O)Nc1cccc(S(N)(=O)=O)c1 [Compound 51] | ≤ 0.2 µM | ≤ 0.2 µM |
| CS(=O)(=O)c1cccc(NC(=O)c2cc(C(F)(F)F)nnc2Oc2cccc(OC(F)(F)F)c2)c1 [Compound 52] | > 5 µM | > 5 µM |
| COc1ccc(Oc2nnc(C(F)(F)F)cc2C(=O)Nc2cccc(S(C)(=O)=O)c2)c(C)c1 [Compound 53] | ≤ 0.2 µM | ≤ 0.2 µM |
| COc1cc(F)ccc1Oc1nnc(C(F)(F)F)cc1C(=O)Nc1cccc(-n2cnnc2C)c1 [Compound 54] | 1 to 5 µM | 1 to 5 µM |
| COc1cc(F)ccc1Oc1nnc(C(F)(F)F)cc1C(=O)Nc1cnnc(C#N)c1 [Compound 55] | 1 to 5 µM | 1 to 5 µM |
| COc1cc(F)ccc1Oc1nnc(C(F)(F)F)cc1C(=O)Nc1cc(C#N)cnn1 [Compound 56] | > 5 µM | > 5 µM |
| COc1cc(F)ccc1Oc1nnc(C(F)(F)F)cc1C(=O)Nc1cccc(N2CCOC2=O)c1 [Compound 57] | > 5 µM | > 5 µM |
| Cc1cc(F)ccc1Oc1nnc(C(F)(F)F)cc1C(=O)Nc1ccnnc1 [Compound 59, 3-(4-Fluoro-2-methyl-phenoxy)-N-pyridazin-4-yl-6-(trifluoromethyl)pyridazine-4-carboxamide] | 0.201 to 0.5 µM | 0.501 to 1 µM |
| O=C(Nc1ccc[n+]([O-])c1)c1cc(C(F)(F)F)nnc1Oc1ccc(F)cc1F [Compound 60, 3-(3-(2,4-Difluorophenoxy)-6-(trifluoromethyl)pyridazine-4-carboxamido) pyridine 1-oxide] | 1 to 5 µM | 1 to 5 µM |
| Cc1cc(F)ccc1Oc1nnc(C(F)(F)F)cc1C(=O)Nc1ccc[n+]([O-])c1 [Compound 61] | > 5 µM | > 5 µM |
| O=C(Nc1ccc[n+]([O-])c1)c1cc(C(F)(F)F)nnc1Oc1ccc(F)cc1Cl [Compound 62] | > 5 µM | > 5 µM |
| O=C(Nc1ccnnc1)c1cc(C(F)(F)F)nnc1Oc1ccc(F)cc1Cl [Compound 63] | 0.501 to 1 µM | 0.201 to 0.5 µM |
| CS(=O)(=O)c1cccc(NC(=O)c2cc(C(F)(F)F)nnc2Oc2ccc(F)cc2Cl)c1 [Compound 64] | ≤ 0.2 µM | ≤ 0.2 µM |
| CS(=O)(=O)c1cc(NC(=O)c2cc(C(F)(F)F)nnc2Oc2ccc(F)cc2Cl)ccn1 [Compound 65] | 0.501 to 1 µM | 0.501 to 1 µM |
| CS(=O)(=O)c1cncc(NC(=O)c2cc(C(F)(F)F)nnc2Oc2ccc(F)cc2Cl)c1 [Compound 66] | 1 to 5 µM | > 5 µM |
| COc1cc(NC(=O)c2cc(C(F)(F)F)nnc2Oc2ccc(F)cc2Cl)ccn1 [Compound 67] | > 5 µM | > 5 µM |
